Test results taken from patent publication US12186286B2 (Paracelsus Neuroscience II, LLC, priority 2019, dated 2025).
Entries after “also recorded” stand apart in the source; their conditions may differ. Where two headings read alike, the source gives them in different places.

Experiments:
human KCa3.1 = molecular target: T1, human KCa3.1 (Homo sapiens, UniProt O15554); conditions: human KCa3.1 expressed in recombinant cells; read-out: In-vitro IC50 (nM)*; cited from earlier work
T1 construct: expressed in transfected cells

[1] = cited from earlier work; for free brain concentration / free plasma concentration / Cerebrospinal fluid (CSF) concentration: 10 mg/kg oral; for brain concentration / plasma concentration: 40 mg/kg i.p.
sickle cell disease [2] = conditions: Phase 3, sickle cell patients, cited from earlier work
sickle cell disease [3] = conditions: Phase 2, 10 mg/day, sickle cell patients; cited from earlier work
[4] = system: primary rat cortical microglia; assay: IL-1β release from primary microglia; type: cell-based
Description: (§1) FIG. 4A and FIG. 4B. Effect of KCa3.1 inhibition on NO and IL-1β release from primary microglia. […] (B) Primary rat cortical microglia were incubated with LPS (3 EU/ml) for 24 hours to induce expression of IL-1β.
(§2) After 24 hours, media was assayed for nitrite (stable metabolite of NO). […] Primary rat cortical microglia were also treated with LPS (3 EU/ml, 3 hours) to stimulate the production of pro-IL-1β.

[5] = system: ~70 additional neuronal drug targets (50 neuronal receptors, 8 enzymes, 5 transporters and 7 ion channels); conditions: cited from earlier work
[6] = system: primary rat cortical microglia; assay: NO (nitrite) release from LPS-treated primary microglia; type: cell-based; conditions: LPS 3 EU/ml, 24 hours
Description: as §1, §2

locomotor activity = conditions: rat, doses required for efficacy in the chronic constriction injury model; cited from earlier work
[7] = clinical trials; cited from earlier work
[8] = system: cytochrome P450-dependent enzymes; conditions: cited from earlier work
[9] = Pharmacokinetics and CNS penetration in mouse; type: in vivo
Description: Since experimental surgery-related inflammation is resolved seven days […] the animals are tested, it supported the hypothesis that the efficacy was mediated by inhibition of KCa3.1 on microglia in the spinal cord or brain rather than peripheral immune cells. […] Based on the rat and mouse pharmacokinetic data CNS penetrance in humans seems promising.

[10] = clinical trials, healthy volunteers and sickle cell patients; cited from earlier work
[11] = system: mechanical hypersensitivity induced by peripheral nerve injury; conditions: rat, 10, 30 and 100 mg/kg p.o., only the highest dose significant; cited from earlier work
human CYP2C19 = human CYP2C19 (Homo sapiens, UniProt P33261); conditions: cited from earlier work
[12] = primates; cited from earlier work
human CYP2B6 = molecular target: T2, human CYP2B6 (Homo sapiens, UniProt P20813); conditions: cited from earlier work
T2 sequence (P20813 1-491): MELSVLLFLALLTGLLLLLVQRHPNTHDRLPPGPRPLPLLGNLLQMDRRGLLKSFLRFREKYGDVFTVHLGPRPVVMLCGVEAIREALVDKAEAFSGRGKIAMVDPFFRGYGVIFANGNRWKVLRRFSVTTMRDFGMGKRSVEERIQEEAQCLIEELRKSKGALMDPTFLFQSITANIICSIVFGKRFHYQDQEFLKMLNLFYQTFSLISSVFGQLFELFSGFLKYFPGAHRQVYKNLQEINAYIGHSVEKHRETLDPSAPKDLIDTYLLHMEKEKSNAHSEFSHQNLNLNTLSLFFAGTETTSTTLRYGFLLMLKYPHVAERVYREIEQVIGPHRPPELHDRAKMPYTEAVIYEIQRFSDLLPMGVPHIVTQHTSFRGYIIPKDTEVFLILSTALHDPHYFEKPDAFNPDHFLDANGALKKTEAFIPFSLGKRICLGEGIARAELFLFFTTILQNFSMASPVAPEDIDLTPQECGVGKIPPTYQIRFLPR

human CYP3A4 = human CYP3A4 (Homo sapiens, UniProt P08684); conditions: cited from earlier work
ischemic stroke = conditions: rat, cited from earlier work
[13] = system: non-selective cation current in primary microglia; conditions: primary microglia stimulated with LPC; cited from earlier work

Sequence of human CYP2C19 (P33261 whole entry): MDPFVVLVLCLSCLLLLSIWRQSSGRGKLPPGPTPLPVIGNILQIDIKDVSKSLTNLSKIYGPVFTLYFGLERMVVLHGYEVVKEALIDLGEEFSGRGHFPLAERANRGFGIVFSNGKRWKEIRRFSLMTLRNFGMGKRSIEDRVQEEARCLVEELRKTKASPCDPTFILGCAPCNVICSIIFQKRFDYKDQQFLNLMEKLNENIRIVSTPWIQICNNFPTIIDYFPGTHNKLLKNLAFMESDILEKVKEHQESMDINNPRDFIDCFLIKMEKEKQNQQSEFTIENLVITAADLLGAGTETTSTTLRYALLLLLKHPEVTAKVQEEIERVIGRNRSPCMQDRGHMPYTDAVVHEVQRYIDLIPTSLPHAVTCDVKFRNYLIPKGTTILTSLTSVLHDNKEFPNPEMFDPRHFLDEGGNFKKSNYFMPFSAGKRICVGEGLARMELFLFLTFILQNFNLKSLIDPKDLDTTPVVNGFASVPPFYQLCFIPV
Sequence of human CYP3A4 (P08684 whole entry): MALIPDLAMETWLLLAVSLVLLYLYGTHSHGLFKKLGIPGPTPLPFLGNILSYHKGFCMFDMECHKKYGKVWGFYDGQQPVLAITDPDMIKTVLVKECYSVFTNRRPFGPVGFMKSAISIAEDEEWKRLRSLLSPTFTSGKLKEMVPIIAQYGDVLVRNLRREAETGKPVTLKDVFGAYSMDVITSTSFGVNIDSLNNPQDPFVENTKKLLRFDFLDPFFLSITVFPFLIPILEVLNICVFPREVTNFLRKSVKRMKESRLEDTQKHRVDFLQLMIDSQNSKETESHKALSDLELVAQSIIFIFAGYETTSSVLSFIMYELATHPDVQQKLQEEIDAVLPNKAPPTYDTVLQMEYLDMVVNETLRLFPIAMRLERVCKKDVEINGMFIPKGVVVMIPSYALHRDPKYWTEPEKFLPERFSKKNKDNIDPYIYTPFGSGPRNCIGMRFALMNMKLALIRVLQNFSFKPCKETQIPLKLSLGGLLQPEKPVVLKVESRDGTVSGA

In the case of O=C1CSc2ccccc2N1Cc1cccc(C(F)(F)F)c1 [NS6180, 4-[[3-(trifluoromethyl)phenyl]methyl]-2H-1,4-benzothiazin-3(4H)-one], the IC50 (human KCa3.1) is given as 9.4 nM, the “Cmax-Total (nM) Plasma” value ([1]; rat, 10 mg/kg p.o.) is given as 186 nM and the “T½” value ([1]; rat, 10 mg/kg p.o.) is given as 3.8 h.
For NC(=O)C(c1ccccc1)(c1ccc(F)cc1)c1ccc(F)cc1 [Senicapoc, senicapoc], the “pain outcome measures (vaso-occlusive / painful crises)” value (sickle cell disease [2]) is given as “no improvement”, the “pain outcome measures (vaso-occlusive / painful crises)” value (sickle cell disease [2]; listed as senicapoc) is given as “no effect” and the “hematocrit and hemoglobin levels” value (sickle cell disease [3]) is given as “significantly increased”. The hemolysis (sickle cell disease [3]) was “reduced”, the IC50 ([4]; LPS 3 EU/ml 3 hours, then BzATP 1 mM) was 15 nM and the IC50 ([4]; figure legend: LPS 3 EU/ml for 24 hours (n=3)) was 1.3 nM. For the same compound, the “inhibition of ~70 additional neuronal drug targets” value ([5]; 1 μM) was “None of the targets tested was inhibited”, the off target effects ([5]; at concentrations that block KCa3.1) was “no known off target effects” and the free brain concentration ([1]; rat, four hours post-dose) was 136 nM. The free plasma concentration ([1]; rat, four hours post-dose) was 65 nM, the “Cerebrospinal fluid (CSF) concentration” value ([1]; rat, four hours post-dosing) was 121 nM and the free brain concentration ([1]; rat, one hour post-dose) was 37 nM. The free plasma concentration ([1]; rat, one hour post-dose) was 17 nM, the “Cerebrospinal fluid (CSF) concentration” value ([1]; rat, one hour post-dosing) was 25 nM and the “Cmax-Unbound (nM) CSF” value ([1]; rat, 10 mg/kg p.o., CSF) was 121 nM. For the same compound, the “Cmax-Total (nM) Brain” value ([1]; rat, 10 mg/kg p.o.) was 17,000 nM, the “Cmax-Unbound (nM) Brain” value ([1]; rat, 10 mg/kg p.o.) was 136 nM and the “Cmax-Total (nM) Plasma” value ([1]; rat, 10 mg/kg p.o.) was 2,400 nM. For the same compound, the “Cmax-Unbound (nM) Plasma” value ([1]; rat, 10 mg/kg p.o.) was 65 nM, the “T½” value ([1]; rat, 10 mg/kg p.o.) was 1 h and the “% unbound Plasma” value ([1]; rat) was 2.7%. The blood-brain barrier crossing ([1]; rat) was “cross the blood-brain barrier”, the IC50 ([6]; average) was 39 nM and the EC50 ([6]; representative experiment (n=3), read-out: EC50, production of NO (nitrite)) was 0.9 nM. For the same compound, the locomotor activity (locomotor activity) was “did not observe any significant impact; also recorded: did not alter activity”, the t1/2 in humans [7] was 552 h and the “effect on cytochrome P450-dependent enzymes” value [8] was “does not suffer from metabolic instability or effects on cytochrome P450”. The “brain versus plasma levels” value [9] was “higher levels in brain than plasma”, the “Cmax-Total (nM) Plasma” value ([9]; 10 mg/kg p.o., plasma) was 709 nM and the fraction unbound ([9]; brain, read-out: % unbound Brain) was 0.008. For the same compound, the Tmax ([9]; in vivo, po, 10 mg/kg p.o.) was 0.33 h, the half-life ([9]; in vivo, po, 10 mg/kg p.o., read-out: T½ (converted)) was 3.1 h and the fraction unbound ([9]; plasma, read-out: % unbound Plasma) was 0.015. For the same compound, the “tolerability / side effects in humans” value [10] was “without any significant side effects; also recorded: well tolerated; also recorded: safe and has a low incidence of side effects” and the mechanical hypersensitivity [11] was “attenuated”.
For Clc1ccccc1C(c1ccccc1)(c1ccccc1)n1cccn1 [TRAM-34], the “IC50, CYP2C19” value (human CYP2C19) is listed as “low micromolar range”, the half-life [12] is listed as roughly 2 h and the “Cmax-Total (nM) Brain” value ([1]; rat, 10 mg/kg p.o.) is listed as roughly 2500 nM. The “Cmax-Unbound (nM) Brain” value ([1]; rat, 10 mg/kg p.o.) was 50 nM, the “Cmax-Total (nM) Plasma” value ([1]; rat, 10 mg/kg p.o.) was roughly 2500 nM and the “Cmax-Unbound (nM) Plasma” value ([1]; rat, 10 mg/kg p.o.) was 50 nM. For the same compound, the “Tmax” value ([1]; rat, 10 mg/kg p.o.) was 0.5 to 1 h, the “T½” value ([1]; rat, 10 mg/kg p.o.) was roughly 2 h and the brain concentration ([1]; rat, 8 hours) was roughly 1000 nM. For the same compound, the plasma concentration ([1]; rat, 8 hours) was roughly 1000 nM, the brain concentration ([1]; rat, 12 hours) was 400 nM and the plasma concentration ([1]; rat, 12 hours) was 400 nM. For the same compound, the “% unbound Plasma” value ([1]; rat) was 2%, the “% unbound in plasma” value ([1]; rat) was “approximately 2%” and the half-life ([1]; rats) was roughly 2 h. For the same compound, the “IC50, CYP2B6” value (human CYP2B6) was “low micromolar range”, the “IC50, CYP3A4” value (human CYP3A4) was “low micromolar range” and the “effect on cytochrome P450-dependent enzymes” value [8] was “no effect”. The neuronal loss (ischemic stroke; 10 and 40 mg/kg i.p.) was “significantly attenuated”, the “post stroke infarct volume” value (ischemic stroke; 10 and 40 mg/kg i.p.) was “significantly attenuated” and the “outcome when given 12 hours after the ischemic insult” value (ischemic stroke; given 12 hours after insult) was “improved the outcome”. For the same compound, the “extent of microglial ED1 staining” value (ischemic stroke) was “significantly reduced” and the neurological deficit score (ischemic stroke) was “improved”.
In the case of charybdotoxin, the “effect on LPC signals” value [13] is listed as “no effect”.
